Tests used:
[1] = test system: protease; assay: Protease activity retention in detergent use solution (4000 ppm, 5 GPG water; peptidyl substrate, glycine buffer pH 9.0); format: biochemical; conditions: base formula, use solution at 120° F.
Method in brief: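 Detergent use solutions at 4000 ppm in 5 GPG water were held at 120° F with stirring and sampled up to 4 h, with aliquots flash-frozen. Activity was read on a peptidyl substrate in glycine buffer pH 9.0 by absorbance against a calibration curve. Retention is % activity relative to the t=0 sample.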

[2] = test system: lipase; assay: Lipase activity retention in detergent use solution (4000 ppm, 5 GPG water; p-nitrophenyl valerate, TRIS buffer pH 8.0); format: biochemical; conditions: base formula
Method in brief: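 Lipase stability was measured in a detergent use solution under conditions mimicking presoak or manual warewash, with stirring in a water bath. Aliquots were taken over time and flash-frozen. Thawed samples were diluted in TRIS buffer at pH 8.0 and assayed with p-nitrophenyl valerate as substrate on a plate reader. Activity is reported as % retained relative to the time=0 sample.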

Monoethanolamine phosphonate [MEAP]
Relative Protease Enzyme Activity ([1]; phosphonate 0.3 wt-%, lower half of Table 4A, time 5): 98.29%
Relative Protease Enzyme Activity ([1]; phosphonate 0.3 wt-%, lower half of Table 4A, time 20): 90.19%
Relative Protease Enzyme Activity ([1]; phosphonate 0.3 wt-%, lower half of Table 4A, time 90): 72.58%
Relative Protease Enzyme Activity ([1]; phosphonate 0.3 wt-%, lower half of Table 4A, time 120): 68.59%
Relative Protease Enzyme Activity ([1]; phosphonate 0.3 wt-%, lower half of Table 4A, time 150, unit not given): 63.56%
Relative Protease Enzyme Activity ([1]; phosphonate 0.3 wt-%, lower half of Table 4A, time 210): 60.60%
Relative Protease Enzyme Activity ([1]; phosphonate 0.3 wt-%, lower half of Table 4A, time '0'): 103.02%
Relative Protease Enzyme Activity ([1]; phosphonate 0.3 wt-%, lower half of Table 4A, time '40'): 82.48%
Relative Protease Enzyme Activity ([1]; phosphonate 0.3 wt-%, lower half of Table 4A, time 'Blank'): 100.00%
Relative Protease Enzyme Activity ([1]; phosphonate 0.3 wt-%, lower half of Table 4A, time row printed '10'): 96.59%
Relative Protease Enzyme Activity ([1]; phosphonate 0.3 wt-%, lower half of Table 4A, time row printed '60'): 79.14%
Relative Protease Enzyme Activity ([1]; phosphonate 0.3 wt-%, lower half of Table 4A, time row printed '180'): 58.70%
Relative Protease Enzyme Activity ([1]; phosphonate 0.6 wt-%, time 0 min): 100.00%
Relative Protease Enzyme Activity ([1]; phosphonate 0.6 wt-%, time 5 min): 106.85%
Relative Protease Enzyme Activity ([1]; phosphonate 0.6 wt-%, time 10 min): 101.06%
Relative Protease Enzyme Activity ([1]; phosphonate 0.6 wt-%, time 20 min): 104.08%
Relative Protease Enzyme Activity ([1]; phosphonate 0.6 wt-%, time 40 min): 95.75%
Relative Protease Enzyme Activity ([1]; phosphonate 0.6 wt-%, time 60 min): 95.13%
Relative Protease Enzyme Activity ([1]; phosphonate 0.6 wt-%, time 90 min): 86.12%
Relative Protease Enzyme Activity ([1]; phosphonate 0.6 wt-%, time 120 min): 85.48%
Relative Protease Enzyme Activity ([1]; phosphonate 0.6 wt-%, time 150 min): 80.22%
Relative Protease Enzyme Activity ([1]; phosphonate 0.6 wt-%, time 180 min): 82.71%
Relative Protease Enzyme Activity ([1]; phosphonate 0.6 wt-%, time 210 min): 70.64%
Relative Protease Enzyme Activity ([1]; phosphonate 0.6 wt-%, time 240 min): 72.77%
Relative Protease Enzyme Activity ([1]; phosphonate at 0.1% elemental phosphorus, time 0 min): 100.00%
Relative Protease Enzyme Activity ([1]; phosphonate at 0.1% elemental phosphorus, time 5 min): 119.22%
Relative Protease Enzyme Activity ([1]; phosphonate at 0.1% elemental phosphorus, time 10 min): 118.42%
Relative Protease Enzyme Activity ([1]; phosphonate at 0.1% elemental phosphorus, time 20 min): 113.68%
Relative Protease Enzyme Activity ([1]; phosphonate at 0.1% elemental phosphorus, time 40 min): 108.32%
Relative Protease Enzyme Activity ([1]; phosphonate at 0.1% elemental phosphorus, time 60 min): 105.97%
Relative Protease Enzyme Activity ([1]; phosphonate at 0.1% elemental phosphorus, time 90 min): 95.99%
Relative Protease Enzyme Activity ([1]; phosphonate at 0.1% elemental phosphorus, time 120 min): 91.30%
Relative Protease Enzyme Activity ([1]; phosphonate at 0.1% elemental phosphorus, time 150 min): 82.74%
Relative Protease Enzyme Activity ([1]; phosphonate at 0.1% elemental phosphorus, time 180 min): 81.94%
Relative Protease Enzyme Activity ([1]; phosphonate at 0.1% elemental phosphorus, time 210 min): 79.85%
Relative Protease Enzyme Activity ([1]; phosphonate at 0.1% elemental phosphorus, time 240 min): 75.73%
Relative Lipase Enzyme Activity ([2]; phosphonate 0.3 wt-%, use solution at 120° F., time 0 min): 100.00%
Relative Lipase Enzyme Activity ([2]; phosphonate 0.3 wt-%, use solution at 120° F., time 5 min): 84.99%
Relative Lipase Enzyme Activity ([2]; phosphonate 0.3 wt-%, use solution at 120° F., time 10 min): 78.55%
Relative Lipase Enzyme Activity ([2]; phosphonate 0.3 wt-%, use solution at 120° F., time 20 min): 58.36%
Relative Lipase Enzyme Activity ([2]; phosphonate 0.3 wt-%, use solution at 120° F., time 40 min): 39.07%
Relative Lipase Enzyme Activity ([2]; phosphonate 0.3 wt-%, use solution at 120° F., time 60 min): 31.84%
Relative Lipase Enzyme Activity ([2]; phosphonate 0.3 wt-%, use solution at 120° F., time 90 min): 26.97%
Relative Lipase Enzyme Activity ([2]; phosphonate 0.3 wt-%, use solution at 120° F., time 120 min): 22.23%
Relative Lipase Enzyme Activity ([2]; phosphonate 0.3 wt-%, use solution at 120° F., time 150 min): 20.19%
Relative Lipase Enzyme Activity ([2]; phosphonate 0.3 wt-%, use solution at 120° F., time 180 min): 19.50%
Relative Lipase Enzyme Activity ([2]; phosphonate 0.3 wt-%, use solution at 120° F., time 210 min): 16.46%
Relative Lipase Enzyme Activity ([2]; phosphonate 0.3 wt-%, use solution at 120° F., time 240 min): 15.76%
Relative Lipase Enzyme Activity ([2]; phosphonate 0.6 wt-%, use solution at 120º F., time 0 min): 100.00%
Relative Lipase Enzyme Activity ([2]; phosphonate 0.6 wt-%, use solution at 120º F., time 5 min): 95.37%
Relative Lipase Enzyme Activity ([2]; phosphonate 0.6 wt-%, use solution at 120º F., time 10 min): 90.69%
Relative Lipase Enzyme Activity ([2]; phosphonate 0.6 wt-%, use solution at 120º F., time 20 min): 83.63%
Relative Lipase Enzyme Activity ([2]; phosphonate 0.6 wt-%, use solution at 120º F., time 40 min): 72.89%
Relative Lipase Enzyme Activity ([2]; phosphonate 0.6 wt-%, use solution at 120º F., time 60 min): 69.90%
Relative Lipase Enzyme Activity ([2]; phosphonate 0.6 wt-%, use solution at 120º F., time 90 min): 65.92%
Relative Lipase Enzyme Activity ([2]; phosphonate 0.6 wt-%, use solution at 120º F., time 120 min): 59.18%
Relative Lipase Enzyme Activity ([2]; phosphonate 0.6 wt-%, use solution at 120º F., time 150 min): 53.85%
Relative Lipase Enzyme Activity ([2]; phosphonate 0.6 wt-%, use solution at 120º F., time 180 min): 51.72%
Relative Lipase Enzyme Activity ([2]; phosphonate 0.6 wt-%, use solution at 120º F., time 210 min): 47.03%
Relative Lipase Enzyme Activity ([2]; phosphonate 0.6 wt-%, use solution at 120º F., time 240 min): 42.96%
Relative Lipase Enzyme Activity ([2]; phosphonate at 0.1% elemental phosphorus, at 120º F. or at room temperature (as titled), time 0 min): 100.00%
Relative Lipase Enzyme Activity ([2]; phosphonate at 0.1% elemental phosphorus, at 120º F. or at room temperature (as titled), time 5 min): 81.36%
Relative Lipase Enzyme Activity ([2]; phosphonate at 0.1% elemental phosphorus, at 120º F. or at room temperature (as titled), time 10 min): 84.98%
Relative Lipase Enzyme Activity ([2]; phosphonate at 0.1% elemental phosphorus, at 120º F. or at room temperature (as titled), time 20 min): 71.62%
Relative Lipase Enzyme Activity ([2]; phosphonate at 0.1% elemental phosphorus, at 120º F. or at room temperature (as titled), time 40 min): 57.03%
Relative Lipase Enzyme Activity ([2]; phosphonate at 0.1% elemental phosphorus, at 120º F. or at room temperature (as titled), time 60 min): 47.80%
Relative Lipase Enzyme Activity ([2]; phosphonate at 0.1% elemental phosphorus, at 120º F. or at room temperature (as titled), time 90 min): 41.02%
Relative Lipase Enzyme Activity ([2]; phosphonate at 0.1% elemental phosphorus, at 120º F. or at room temperature (as titled), time 120 min): 31.46%
Relative Lipase Enzyme Activity ([2]; phosphonate at 0.1% elemental phosphorus, at 120º F. or at room temperature (as titled), time 150 min): 28.32%
Relative Lipase Enzyme Activity ([2]; phosphonate at 0.1% elemental phosphorus, at 120º F. or at room temperature (as titled), time 180 min): 20.93%
Relative Lipase Enzyme Activity ([2]; phosphonate at 0.1% elemental phosphorus, at 120º F. or at room temperature (as titled), time 210 min): 23.04%
Relative Lipase Enzyme Activity ([2]; phosphonate at 0.1% elemental phosphorus, at 120º F. or at room temperature (as titled), time 240 min): 20.87%
